Laboratory results from paper PMC5218480 (PLoS ONE, 2017).

Tested on: MV-4-11 cells
Experiment: Gene expression microarray analysis (Affymetrix PrimeView) and GSEA
Format: cell-based, human
Parameters: RFU PODN (11730768_x_at) / Fold change /veh PODN (11730768_x_at) / RFU LINC00158 (11744669_a_at) / Fold change /veh LINC00158 (11744669_a_at) / RFU DUSP10 (11751237_a_at) / Fold change /veh DUSP10 (11751237_a_at) / RFU ID3 (11757404_x_at) / Fold change /veh ID3 (11757404_x_at) / RFU PLEKHG5 (11737974_s_at) / Fold change /veh PLEKHG5 (11737974_s_at) / RFU LRRC4B (11730491_at) / Fold change /veh LRRC4B (11730491_at) / RFU GIMAP4 (11747438_a_at) / Fold change /veh GIMAP4 (11747438_a_at) / RFU KRT8 (11758183_x_at) / Fold change /veh KRT8 (11758183_x_at) / RFU CNN1 (11734310_a_at) / Fold change /veh CNN1 (11734310_a_at) / RFU VPS37D (11726825_at) / Fold change /veh VPS37D (11726825_at) / RFU C10orf10 (11716522_x_at) / Fold change /veh C10orf10 (11716522_x_at) / RFU KIR2DL2 /// KIR2DL4 /// KIR2DL5A /// KIR2DL5B /// KIR2DS1 /// KIR2DS2 /// KIR2DS3 /// KIR2DS4 /// KIR3DL3 /// KIR3DL3 /// KIR3DS1 (11738374_at) / Fold change /veh KIR2DL2 /// KIR2DL4 /// KIR2DL5A /// KIR2DL5B /// KIR2DS1 /// KIR2DS2 /// KIR2DS3 /// KIR2DS4 /// KIR3DL3 /// KIR3DL3 /// KIR3DS1 (11738374_at) / RFU C1QL1 (11718748_at) / Fold change /veh C1QL1 (11718748_at) / RFU TMPRSS4 (11747572_a_at) / Fold change /veh TMPRSS4 (11747572_a_at) / RFU HAMP (11756126_x_at) / Fold change /veh HAMP (11756126_x_at) / RFU RNFT2 (11725882_a_at) / Fold change /veh RNFT2 (11725882_a_at) / RFU NR4A2 (11747474_a_at) / Fold change /veh NR4A2 (11747474_a_at) / RFU ABCC12 (11746883_a_at) / Fold change /veh ABCC12 (11746883_a_at) / RFU TMEM136 (11760407_x_at) / Fold change /veh TMEM136 (11760407_x_at) / RFU CLDN22 /// WWC2 (11732394_at) / Fold change /veh CLDN22 /// WWC2 (11732394_at) / RFU HLA-DPB1 (11760878_x_at) / Fold change /veh HLA-DPB1 (11760878_x_at) / RFU SPINT1 (11716480_a_at) / Fold change /veh SPINT1 (11716480_a_at) / RFU GAP43 (11754022_s_at) / Fold change /veh GAP43 (11754022_s_at) / RFU A4GNT (11735810_at) / Fold change /veh A4GNT (11735810_at) / RFU PRB3 (11715151_x_at) / Fold change /veh PRB3 (11715151_x_at) / RFU TUBB4B (11761932_at) / Fold change /veh TUBB4B (11761932_at) / RFU CAPN14 (11732068_a_at) / Fold change /veh CAPN14 (11732068_a_at) / RFU TMCC2 (11721928_a_at) / Fold change /veh TMCC2 (11721928_a_at) / RFU IRGQ (11745062_a_at) / Fold change /veh IRGQ (11745062_a_at) / RFU FAM174B (11720279_a_at) / Fold change /veh FAM174B (11720279_a_at) / RFU TMPRSS4 (11748680_a_at) / Fold change /veh TMPRSS4 (11748680_a_at) / RFU FAM212B (11763350_a_at) / Fold change /veh FAM212B (11763350_a_at) / RFU PLEKHG5 (11743358_a_at) / Fold change /veh PLEKHG5 (11743358_a_at) / RFU ZSCAN30 (11745921_a_at) / Fold change /veh ZSCAN30 (11745921_a_at) / RFU CMKLR1 (11741424_a_at) / Fold change /veh CMKLR1 (11741424_a_at) / RFU LOC101060620 /// MAPK8IP1 (11723275_at) / Fold change /veh LOC101060620 /// MAPK8IP1 (11723275_at) / RFU SPTSSB (11747773_x_at) / Fold change /veh SPTSSB (11747773_x_at) / RFU PRSS12 (11739890_at) / Fold change /veh PRSS12 (11739890_at) / RFU BIN1 (11741810_x_at) / Fold change /veh BIN1 (11741810_x_at) / RFU WNT11 (11732464_a_at) / Fold change /veh WNT11 (11732464_a_at) / RFU C10orf10 (11716521_a_at) / Fold change /veh C10orf10 (11716521_a_at) / RFU C5orf56 (11738089_at) / Fold change /veh C5orf56 (11738089_at) / RFU CYB561 (11721691_x_at) / Fold change /veh CYB561 (11721691_x_at) / RFU ANKRD19P (11752326_a_at) / Fold change /veh ANKRD19P (11752326_a_at) / RFU OR2T12 /// OR2T33 /// OR2T8 (11738714_s_at) / Fold change /veh OR2T12 /// OR2T33 /// OR2T8 (11738714_s_at) / RFU VCAN (11748164_a_at) / Fold change /veh VCAN (11748164_a_at) / RFU JSRP1 (11732532_at) / Fold change /veh JSRP1 (11732532_at) / RFU KRTAP10-11 (11738290_x_at) / Fold change /veh KRTAP10-11 (11738290_x_at) / RFU MYO3A (11730013_a_at) / Fold change /veh MYO3A (11730013_a_at) / RFU EBF3 (11725865_a_at) / Fold change /veh EBF3 (11725865_a_at) / RFU CAMK2N1 (11719241_x_at) / Fold change /veh CAMK2N1 (11719241_x_at) / RFU C5orf56 (11738088_a_at) / Fold change /veh C5orf56 (11738088_a_at) / RFU OLFML3 (11715873_a_at) / Fold change /veh OLFML3 (11715873_a_at) / RFU LOC100653217 /// NTM (11731650_a_at) / Fold change /veh LOC100653217 /// NTM (11731650_a_at) / RFU MAPK11 (11762145_a_at) / Fold change /veh MAPK11 (11762145_a_at) / RFU FIZ1 (11724087_x_at) / Fold change /veh FIZ1 (11724087_x_at) / RFU OASL (11726364_x_at) / Fold change /veh OASL (11726364_x_at) / RFU SOX15 (11748057_x_at) / Fold change /veh SOX15 (11748057_x_at) / RFU CD79A (11719716_a_at) / Fold change /veh CD79A (11719716_a_at) / RFU HIST1H1D (11736915_at) / Fold change /veh HIST1H1D (11736915_at) / RFU CASKIN2 (11723855_a_at) / Fold change /veh CASKIN2 (11723855_a_at) / RFU LOC730098 (11760151_x_at) / Fold change /veh LOC730098 (11760151_x_at) / RFU OR4N2 (11742367_at) / Fold change /veh OR4N2 (11742367_at) / RFU PRRT2 (11749266_a_at) / Fold change /veh PRRT2 (11749266_a_at) / RFU SNX32 (11753110_a_at) / Fold change /veh SNX32 (11753110_a_at) / RFU CDHR5 (11726645_a_at) / Fold change /veh CDHR5 (11726645_a_at) / RFU RCAN1 (11760418_a_at) / Fold change /veh RCAN1 (11760418_a_at) / RFU FAM167A (11723789_a_at) / Fold change /veh FAM167A (11723789_a_at) / RFU FAM26E (11764081_at) / Fold change /veh FAM26E (11764081_at) / RFU ISYNA1 (11749810_s_at) / Fold change /veh ISYNA1 (11749810_s_at) / RFU ACY1 (11761880_at) / Fold change /veh ACY1 (11761880_at) / RFU 11764098_at / Fold change /veh 11764098_at / RFU SAMD14 (11745864_x_at) / Fold change /veh SAMD14 (11745864_x_at) / RFU NPB (11741838_a_at) / Fold change /veh NPB (11741838_a_at) / RFU TMPRSS6 (11731388_a_at) / Fold change /veh TMPRSS6 (11731388_a_at) / RFU KRTAP10-2 (11738614_at) / Fold change /veh KRTAP10-2 (11738614_at) / RFU ARHGAP8 /// PRR5-ARHGAP8 (11727945_x_at) / Fold change /veh ARHGAP8 /// PRR5-ARHGAP8 (11727945_x_at) / RFU KRTAP5-7 /// NADSYN1 (11734609_at) / Fold change /veh KRTAP5-7 /// NADSYN1 (11734609_at) / RFU RASL12 (11751679_a_at) / Fold change /veh RASL12 (11751679_a_at) / RFU CDKN2B (11736163_a_at) / Fold change /veh CDKN2B (11736163_a_at) / RFU PRF1 (11729649_at) / Fold change /veh PRF1 (11729649_at) / RFU, ZNF638 /// ZNF638-IT1 / Fold change vs veh, ZNF638 /// ZNF638-IT1 / RFU, PANK3 / Fold change vs veh, PANK3 / RFU, SH3YL1 / Fold change vs veh, SH3YL1 / RFU, ZEB2 / Fold change vs veh, ZEB2 / RFU, NRIP1 / Fold change vs veh, NRIP1 / RFU, PTTG1IP / Fold change vs veh, PTTG1IP / RFU, CAPN2 / Fold change vs veh, CAPN2 / RFU, MED14 / Fold change vs veh, MED14 / RFU, SNORA58 / Fold change vs veh, SNORA58 / RFU, C1orf63 / Fold change vs veh, C1orf63 / RFU, LRRFIP1 / Fold change vs veh, LRRFIP1 / RFU, NDUFAF7 / Fold change vs veh, NDUFAF7 / RFU, SLC12A2 / Fold change vs veh, SLC12A2 / RFU, IBTK / Fold change vs veh, IBTK / RFU, ESF1 / Fold change vs veh, ESF1 / Fold change vs veh, TMEM50B / RFU, TAOK1 / Fold change vs veh, TAOK1 / RFU, ACBD3 / Fold change vs veh, ACBD3 / RFU, TMA16 / Fold change vs veh, TMA16 / RFU, RWDD3 / Fold change vs veh, RWDD3 / RFU, BCAT1 / Fold change vs veh, BCAT1 / RFU, EDEM3 / Fold change vs veh, EDEM3 / RFU, TMEM33 / Fold change vs veh, TMEM33 / RFU, WDR75 / Fold change vs veh, WDR75 / RFU, AHCTF1 / Fold change vs veh, AHCTF1 / RFU, TFRC / Fold change vs veh, TFRC / RFU, ZDHHC17 / Fold change vs veh, ZDHHC17 / RFU, NOM1 / Fold change vs veh, NOM1 / RFU, ARL8B / Fold change vs veh, ARL8B / RFU, ZBTB11 / Fold change vs veh, ZBTB11 / RFU, TAMM41 / Fold change vs veh, TAMM41 / RFU, KIAA1704 /// LOC100996395 / Fold change vs veh, KIAA1704 /// LOC100996395 / RFU, ING1 / Fold change vs veh, ING1 / RFU, TRMT61B / Fold change vs veh, TRMT61B / RFU, FUBP3 / Fold change vs veh, FUBP3 / RFU, TP53 / Fold change vs veh, TP53 / RFU, TNKS2 / Fold change vs veh, TNKS2 / RFU, ZFP14 / Fold change vs veh, ZFP14 / RFU, ACTR2 / Fold change vs veh, ACTR2 / RFU, PPP3R1 / Fold change vs veh, PPP3R1 / RFU, PIK3R1 / Fold change vs veh, PIK3R1 / RFU, HNRNPA1 / Fold change vs veh, HNRNPA1 / RFU, RNF170 / Fold change vs veh, RNF170 / RFU, ZNF28 / Fold change vs veh, ZNF28 / RFU, RNGTT / Fold change vs veh, RNGTT / RFU, OGT / Fold change vs veh, OGT / RFU, BRD1 / Fold change vs veh, BRD1 / RFU, MARS / Fold change vs veh, MARS / RFU, ZNF655 / Fold change vs veh, ZNF655 / RFU, FAHD1 / Fold change vs veh, FAHD1 / RFU, BDP1 / Fold change vs veh, BDP1 / RFU, LRRCC1 / Fold change vs veh, LRRCC1 / RFU, ARID1A / Fold change vs veh, ARID1A / RFU, ZNF146 / Fold change vs veh, ZNF146 / RFU, ZNF330 / Fold change vs veh, ZNF330 / RFU, GPN3 / Fold change vs veh, GPN3 / RFU, C9orf123 / Fold change vs veh, C9orf123 / RFU, N4BP2L2 / Fold change vs veh, N4BP2L2 / RFU, ARFIP1 / Fold change vs veh, ARFIP1 / RFU, FAM179B / Fold change vs veh, FAM179B / RFU, BCL10 / Fold change vs veh, BCL10 / RFU, UHRF1BP1L / Fold change vs veh, UHRF1BP1L / RFU, BET1 / Fold change vs veh, BET1 / RFU, CNOT2 / Fold change vs veh, CNOT2 / RFU, ZNF268 / Fold change vs veh, ZNF268 / Fold change vs veh, ZNF507 / RFU, DGCR2 / Fold change vs veh, DGCR2 / RFU, WDSUB1 / Fold change vs veh, WDSUB1 / Fold change vs veh, HSP90B1 /// MIR3652 / RFU, ADSS / Fold change vs veh, ADSS / RFU, GK / Fold change vs veh, GK / RFU, ZNF148 / Fold change vs veh, ZNF148 / RFU, TAF9 / Fold change vs veh, TAF9 / RFU, SLC1A5 / Fold change vs veh, SLC1A5 / RFU, SLMO2 / Fold change vs veh, SLMO2 / RFU, ABCC4 / Fold change vs veh, ABCC4 / RFU, LOC101060439 /// RAP1B / Fold change vs veh, LOC101060439 /// RAP1B / RFU, RFX7 / Fold change vs veh, RFX7 / RFU, GTPBP10 / Fold change vs veh, GTPBP10 / RFU, CNEP1R1 / Fold change vs veh, CNEP1R1 / RFU, BIVM-ERCC5 /// ERCC5 / Fold change vs veh, BIVM-ERCC5 /// ERCC5 / RFU, ILF3 / Fold change vs veh, ILF3 / RFU 11762660_at / Fold change /veh 11762660_at / RFU VCAN (11757783_s_at) / Fold change /veh VCAN (11757783_s_at) / RFU DDX43 (11728927_at) / Fold change /veh DDX43 (11728927_at) / RFU KRT8 (11758188_x_at) / Fold change /veh KRT8 (11758188_x_at) / RFU NKD1 (11759106_at) / Fold change /veh NKD1 (11759106_at) / RFU SRD5A1 (11742802_a_at) / Fold change /veh SRD5A1 (11742802_a_at) / RFU TPSAB1 /// TPSB2 (11721975_s_at) / Fold change /veh TPSAB1 /// TPSB2 (11721975_s_at) / RFU GSTM3 (11746129_a_at) / Fold change /veh GSTM3 (11746129_a_at) / RFU IL23R (11737362_x_at) / Fold change /veh IL23R (11737362_x_at) / RFU TMEM51 (11727254_a_at) / Fold change /veh TMEM51 (11727254_a_at) / RFU PIWIL2 (11732686_x_at) / Fold change /veh PIWIL2 (11732686_x_at) / RFU ORM1 (11744905_x_at) / Fold change /veh ORM1 (11744905_x_at) / RFU CCDC152 (11743942_at) / Fold change /veh CCDC152 (11743942_at) / RFU ECM1 (11717891_a_at) / Fold change /veh ECM1 (11717891_a_at) / RFU IL23R (11748794_a_at) / Fold change /veh IL23R (11748794_a_at) / RFU TNFAIP8L3 (11732012_x_at) / Fold change /veh TNFAIP8L3 (11732012_x_at) / RFU MBOAT4 (11741988_at) / Fold change /veh MBOAT4 (11741988_at) / RFU 11764193_at / Fold change /veh 11764193_at / RFU TMEM53 (11763286_at) / Fold change /veh TMEM53 (11763286_at) / RFU MAGEB2 (11727129_at) / Fold change /veh MAGEB2 (11727129_at) / RFU TMEM200A (11744735_a_at) / Fold change /veh TMEM200A (11744735_a_at) / RFU CCDC152 (11751479_a_at) / Fold change /veh CCDC152 (11751479_a_at) / RFU FAM211A (11726209_a_at) / Fold change /veh FAM211A (11726209_a_at) / RFU RGS16 (11746705_a_at) / Fold change /veh RGS16 (11746705_a_at) / RFU VCAN (11755009_s_at) / Fold change /veh VCAN (11755009_s_at) / RFU RHOB (11743442_s_at) / Fold change /veh RHOB (11743442_s_at) / RFU RGS16 (11720943_a_at) / Fold change /veh RGS16 (11720943_a_at) / RFU RGS16 (11720944_at) / Fold change /veh RGS16 (11720944_at) / RFU, VPS4B / Fold change vs veh, VPS4B / RFU, CREB1 / Fold change vs veh, CREB1 / RFU, DNAJC13 / Fold change vs veh, DNAJC13 / RFU, GNAQ / Fold change vs veh, GNAQ / RFU, CDK5R1 / Fold change vs veh, CDK5R1 / RFU, ZRANB3 / Fold change vs veh, ZRANB3 / RFU, CUL4A / Fold change vs veh, CUL4A / RFU, CCNY / Fold change vs veh, CCNY / RFU, UFL1 / Fold change vs veh, UFL1 / RFU, COG3 / Fold change vs veh, COG3 / RFU, DIAPH2 / Fold change vs veh, DIAPH2 / RFU, SKA2 / Fold change vs veh, SKA2 / RFU, AFF3 / Fold change vs veh, AFF3 / RFU, LMF1 / Fold change vs veh, LMF1 / RFU, IPO11 / Fold change vs veh, IPO11 / RFU, DFFB / Fold change vs veh, DFFB / RFU, FOXP1 / Fold change vs veh, FOXP1 / RFU, CARD8 / Fold change vs veh, CARD8 / RFU, STRN3 / Fold change vs veh, STRN3 / RFU, ADK / Fold change vs veh, ADK / RFU, RASSF2 / Fold change vs veh, RASSF2 / RFU, WIPF1 / Fold change vs veh, WIPF1 / RFU, LARP1B / Fold change vs veh, LARP1B / RFU, RASA1 / Fold change vs veh, RASA1 / RFU, RB1 / Fold change vs veh, RB1 / RFU, PPFIA1 / Fold change vs veh, PPFIA1 / RFU, MAT2A / Fold change vs veh, MAT2A / RFU, CCT5 / Fold change vs veh, CCT5 / RFU, WDR92 / Fold change vs veh, WDR92 / RFU, CUX1 / Fold change vs veh, CUX1 / RFU, TTC7A / Fold change vs veh, TTC7A / RFU, TMEM135 / Fold change vs veh, TMEM135 / RFU, DEPTOR / Fold change vs veh, DEPTOR / RFU, CPM / Fold change vs veh, CPM / RFU, DNAJB6 / Fold change vs veh, DNAJB6 / RFU, CACNA2D3 / Fold change vs veh, CACNA2D3 / RFU, DTX4 / Fold change vs veh, DTX4 / RFU, TFCP2 / Fold change vs veh, TFCP2 / RFU, GMCL1 /// GMCL1P1 / Fold change vs veh, GMCL1 /// GMCL1P1 / RFU, AEBP2 / Fold change vs veh, AEBP2 / RFU, SNHG1 /// SNORD22 /// SNORD25 /// SNORD26 /// SNORD27 /// SNORD28 /// SNORD29 /// SNORD31 / Fold change vs veh, SNHG1 /// SNORD22 /// SNORD25 /// SNORD26 /// SNORD27 /// SNORD28 /// SNORD29 /// SNORD31 / Fold change (Aza/veh), C12orf56 (ProbeSet 11735607_a_at) / Fold change (ACY-1035/veh), C12orf56 (ProbeSet 11735607_a_at) / Fold change (Aza/veh), FGFR1OP (ProbeSet 11751329_s_at) / Fold change (ACY-1035/veh), FGFR1OP (ProbeSet 11751329_s_at) / Fold change (Aza/veh), VPS36 (ProbeSet 11739960_a_at) / Fold change (ACY-1035/veh), VPS36 (ProbeSet 11739960_a_at) / RFU SYPL1 (11715823_x_at) / Fold change /veh SYPL1 (11715823_x_at) / RFU IGFBP7 (11715501_s_at) / Fold change /veh IGFBP7 (11715501_s_at) / RFU REEP3 (11722064_at) / Fold change /veh REEP3 (11722064_at) / RFU IGLL1 (11728026_x_at) / Fold change /veh IGLL1 (11728026_x_at): dose or concentration left out as unconfirmed
Conditions: MV-4-11 cells, 48 hours

For Nc1ncn([C@@H]2O[C@H](CO)[C@@H](O)[C@H]2O)c(=O)n1 [azacitidine], which “RFU CCDC152 (11743942_at)” value is on record?
The value was 8.41 RFU.
